Reference: US10105373B2, “Fused triterpene compounds and uses thereof” (PIRAMAL ENTERPRISES LIMITED, priority 2014, dated 2018)

Target: T1, RORγt receptor protein (Homo sapiens, UniProt P51449)
T1 sequence (P51449 1-497 isoform P51449-2): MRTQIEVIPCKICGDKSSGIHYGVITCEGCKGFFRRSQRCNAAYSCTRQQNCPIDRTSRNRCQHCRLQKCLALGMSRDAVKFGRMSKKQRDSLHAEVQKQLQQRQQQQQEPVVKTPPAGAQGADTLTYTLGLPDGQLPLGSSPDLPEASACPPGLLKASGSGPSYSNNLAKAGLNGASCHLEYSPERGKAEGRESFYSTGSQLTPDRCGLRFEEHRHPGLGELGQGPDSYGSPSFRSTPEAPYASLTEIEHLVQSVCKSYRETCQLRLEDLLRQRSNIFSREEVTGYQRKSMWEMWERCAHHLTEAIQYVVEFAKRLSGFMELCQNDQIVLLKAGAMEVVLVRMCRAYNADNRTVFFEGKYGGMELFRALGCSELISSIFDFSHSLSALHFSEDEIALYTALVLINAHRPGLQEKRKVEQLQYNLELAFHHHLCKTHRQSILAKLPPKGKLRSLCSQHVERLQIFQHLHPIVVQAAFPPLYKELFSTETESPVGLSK
Test: General RORγ binding assay (radioligand binding, [3H]25-hydroxy cholesterol displacement)
Conditions: displacement of [3H]25-hydroxy cholesterol from 200 ng RORγt receptor protein, 1 h room temperature; test concentrations 0.01-3 μM, concentration for the % not stated
Method: General RORγ Binding Assay:
The RORγ binding of compounds of the present invention as described herein to RORγ was measured. For the radioligand binding assay, various concentrations of the test compounds were prepared (0.01 μM, 0.03 μM, 0.1 μM, 0.3 μM, 1 μM and 3 μM) and the samples were incubated with 200 ng of RORγt receptor protein in the presence of the [^3H]25-hydroxy cholesterol and the mixture was incubated at room temperature for 1 h. An extent of displacement of the radioligand was measured after harvesting the reaction mixture on filter plate reader using TopCount (Perkin Elmer) for radioactivity. The compounds of present invention were tested for RORγ binding using the above assay procedure and the results obtained are given in the below Table 1.

SMILES | ROR binding (%)
C[C@H]1[C@H](C)CC[C@]2(C(=O)O)CC[C@]3(C)C(=CC[C@@H]4[C@@]5(C)Cc6cncnc6C(C)(C)[C@@H]5CC[C@]43C)[C@H]12 [Example 6, (1S,2R,4aS,6aS,6bR,8aR,14aR,14bR,16bS)-1,2,6a,6b,9,9,14a-heptamethyl-1,2,3,4,4a,5,6,6a,6b,7,8,8a,9,14,14a,14b,15,16b-octadecahydrochryseno[1,2-g]quinazoline-4a-carboxylic acid] | +++ (‘+++’ corresponds to more than 80% binding of the compounds of present invention)
C[C@H]1[C@H](C)CC[C@]2(C(=O)O)CC[C@]3(C)C(=CC[C@@H]4[C@@]5(C)Cc6c(N7CCOCC7)ncnc6C(C)(C)[C@@H]5CC[C@]43C)[C@H]12 [Example 14, (1S,2R,4aS,6aS,6bR,8aR,14aR,14bR,16bS)-1,2,6a,6b,9,9,14a-heptamethyl-13-morpholino-1,2,3,4,4a,5,6,6a,6b,7,8,8a,9,14,14a,14b,15,16b-octadecahydrochryseno[1,2-g]quinazoline-4a-carboxylic acid] | ++ (‘++’ corresponds to 50 to 70% binding of the compounds of present invention)
COc1ncnc2c1C[C@]1(C)[C@H]3CC=C4[C@@H]5[C@@H](C)[C@H](C)CC[C@]5(C(=O)O)CC[C@@]4(C)[C@]3(C)CC[C@H]1C2(C)C [Example 23, (1S,2R,4aS,6aS,6bR,8aR,14aR,14bR,16bS)-13-methoxy-1,2,6a,6b,9,9,14a-heptamethyl-1,2,3,4,4a,5,6,6a,6b,7,8,8a,9,14,14a,14b,15,16b-octadecahydrochryseno[1,2-g]quinazoline-4a-carboxylic acid] | ++ (‘++’ corresponds to 50 to 70% binding of the compounds of present invention)
C[C@H]1[C@H](C)CC[C@]2(C(=O)O)CC[C@]3(C)C(=CC[C@@H]4[C@@]5(C)Cc6c(N(C)C)ncnc6C(C)(C)[C@@H]5CC[C@]43C)[C@H]12 [Example 27, (1S,2R,4aS,6aS,6bR,8aR,14aR,14bR,16bS)-13-(dimethylamino)-1,2,6a,6b,9,9,14a-hepta methyl-1,2,3,4,4a,5,6,6a,6b,7,8,8a,9,14,14a,14b,15,16b-octadecahydrochryseno[1,2-g]quinazoline-4a-carboxylic acid] | ++ (‘++’ corresponds to 50 to 70% binding of the compounds of present invention)
Cc1nc(O)c2c(n1)C(C)(C)[C@@H]1CC[C@]3(C)[C@H](CC=C4[C@@H]5[C@@H](C)[C@H](C)CC[C@]5(C(=O)O)CC[C@]43C)[C@@]1(C)C2 [Example 31, (1S,2R,4aS,6aS,6bR,8aR,14aR,14bR,16bS)-13-hydroxy-1,2,6a,6b,9,9,11,14a-octamethyl-1,2,3,4,4a,5,6,6a,6b,7,8,8a,9,14,14a,14b,15,16b-octadecahydrochryseno[1,2-g]quinazoline-4a-carboxylic acid] | ++ (‘++’ corresponds to 50 to 70% binding of the compounds of present invention)
Cc1nc(N(C)C)c2c(n1)C(C)(C)[C@@H]1CC[C@]3(C)[C@H](CC=C4[C@@H]5[C@@H](C)[C@H](C)CC[C@]5(C(=O)O)CC[C@]43C)[C@@]1(C)C2 [Example 38, (1S,2R,4aS,6aS,6bR,8aR,14aR,14bR,16bS)-13-(dimethylamino)-1,2,6a,6b,9,9,11,14a-octamethyl-1,2,3,4,4a,5,6,6a,6b,7,8,8a,9,14,14a,14b,15,16b-octadecahydrochryseno[1,2-g]quinazoline-4a-carboxylic acid] | ++ (‘++’ corresponds to 50 to 70% binding of the compounds of present invention)
Cc1nc(N2CCCC2)c2c(n1)C(C)(C)[C@@H]1CC[C@]3(C)[C@H](CC=C4[C@@H]5[C@@H](C)[C@H](C)CC[C@]5(C(=O)O)CC[C@]43C)[C@@]1(C)C2 [Example 45, (1S,2R,4aS,6aS,6bR,8aR,14aR,14bR,16bS)-1,2,6a,6b,9,9,11,14a-octamethyl-13-(pyrrolidin-1-yl)-1,2,3,4,4a,5,6,6a,6b,7,8,8a,9,14,14a,14b,15,16b-octadecahydrochryseno[1,2-g]quinazoline-4a-carboxylic acid] | ++ (‘++’ corresponds to 50 to 70% binding of the compounds of present invention)
Cc1nc(N2CCOCC2)c2c(n1)C(C)(C)[C@@H]1CC[C@]3(C)[C@H](CC=C4[C@@H]5[C@@H](C)[C@H](C)CC[C@]5(C(=O)O)CC[C@]43C)[C@@]1(C)C2 [Example 55, (1S,2R,4aS,6aS,6bR,8aR,14aR,14bR,16bS)-1,2,6a,6b,9,9,11,14a-octamethyl-13-morpholino-1,2,3,4,4a,5,6,6a,6b,7,8,8a,9,14,14a,14b,15,16b-octadecahydrochryseno[1,2-g]quinazoline-4a-carboxylic acid] | ++ (‘++’ corresponds to 50 to 70% binding of the compounds of present invention)
Cc1ncc2c(n1)C(C)(C)[C@@H]1CC[C@]3(C)[C@H](CC=C4[C@@H]5[C@@H](C)[C@H](C)CC[C@]5(C(=O)O)CC[C@]43C)[C@@]1(C)C2 [Example 59, (1S,2R,4aS,6aS,6bR,8aR,14aR,14bR,16bS)-1,2,6a,6b,9,9,11,14a-octamethyl-1,2,3,4,4a,5,6,6a,6b,7,8,8a,9,14,14a,14b,15,16b-octadecahydrochryseno[1,2-g]quinazoline-4a-carboxylic acid] | +++ (‘+++’ corresponds to more than 80% binding of the compounds of present invention)
CCS(=O)(=O)c1ncc2c(n1)C(C)(C)[C@@H]1CC[C@]3(C)[C@H](CC=C4C5[C@@H](C)[C@H](C)CC[C@]5(C(=O)O)CC[C@]43C)[C@@]1(C)C2 (stereo partly drawn) [Example 78, (1S,2R,4aS,6aS,6bR,8aR,14aR,14bR)-11-(ethylsulfonyl)-1,2,6a,6b,9,9,14a-heptamethyl-1,2,3,4,4a,5,6,6a,6b,7,8,8a,9,14,14a,14b,15,16b-octadecahydrochryseno[1,2-g]quinazoline-4a-carboxylic acid] | +++ (‘+++’ corresponds to more than 80% binding of the compounds of present invention)
C[C@H]1[C@H](C)CC[C@]2(C(=O)O)CC[C@]3(C)C(=CC[C@@H]4[C@@]5(C)Cc6cnc(S(C)(=O)=O)nc6C(C)(C)[C@@H]5CC[C@]43C)[C@H]12 [Example 81, (1S,2R,4aS,6aS,6bR,8aR,14aR,14bR,16bS)-1,2,6a,6b,9,9,14a-heptamethyl-11-(methylsulfonyl)-1,2,3,4,4a,5,6,6a,6b,7,8,8a,9,14,14a,14b,15,16b-octadecahydrochryseno [1,2-g]quinazoline-4a-carboxylic acid] | +++ (‘+++’ corresponds to more than 80% binding of the compounds of present invention)
C[C@H]1[C@H](C)CC[C@]2(C(=O)O)CC[C@]3(C)C(=CC[C@@H]4[C@@]5(C)Cc6cccnc6C(C)(C)[C@@H]5CC[C@]43C)[C@H]12 [Example 84, (1S,2R,4aS,6aS,6bR,8aR,14aR,14bR,16bS)-1,2,3,4,4a,5,6,6a,6b,7,8,8a,9,14,14a,14b,15,16b-octadecahydro-1,2,6a, 6b,9,9,14a-heptamethylchryseno[1,2-g]quinoline-4a-carboxylic acid] | ++ (‘++’ corresponds to 50 to 70% binding of the compounds of present invention)
C[C@H]1[C@H](C)CC[C@]2(C(=O)O)CC[C@]3(C)C(=CC[C@@H]4[C@@]5(C)Cc6cc(C(N)=O)cnc6C(C)(C)[C@@H]5CC[C@]43C)[C@H]12 [Example 94, (1S,2R,4aS,6aS,6bR,8aR,14aR,14bR,16bS)-12-carbamoyl-1,2,3,4,4a,5,6,6a,6b,7,8,8a,9,14,14a,14b,15,16b-octadecahydro-1,2,6a,6b,9,9,14a-heptamethylchryseno[1,2-g]quinoline-4a-carboxylic acid] | ++ (‘++’ corresponds to 50 to 70% binding of the compounds of present invention)
